# Measured values from patent publication US10865216B2, “Tricyclic Gyrase inhibitors” (MERCK SHARP & DOHME CORP., priority 2012, dated 2020).
# Key:
# S. aureus ATCC 13709 = assay: MIC, S. aureus ATCC 13709; type: cell-based; details: S. aureus; Alamar Blue read after overnight incubation at 35° C.
# E. coli ATCC 25922 = assay: MIC, E. coli ATCC 25922; type: cell-based; details: E. coli; Alamar Blue read after overnight incubation at 35° C.
structure (smiles),measurement,setting,value
CNc1cc(F)cc2c1[nH]c1nc(Oc3cnc(C)nc3)nc(N3C[C@@H]4C(N)CC(C)(C)[C@@H]4C3)c12 (some centres unmarked) [Compound 4.097],MIC Sa,S. aureus ATCC 13709,≤0.5 µg/mL
same,MIC Ec,E. coli ATCC 25922,2 µg/mL
CNc1cc(F)cc2c1[nH]c1nc(Oc3cnc(C)nc3)nc(N3CC4CC4(CN)C3)c12 (centres unmarked) [Compound 4.098],MIC Sa,S. aureus ATCC 13709,≤0.5 µg/mL
same,MIC Ec,E. coli ATCC 25922,1 µg/mL
CNc1cc(F)cc2c1[nH]c1nc(Oc3cnc(C)nc3)nc(N3CC4CCC(N)C4(C)C3)c12 (centres unmarked) [Compound 4.099],MIC Sa,S. aureus ATCC 13709,≤0.5 µg/mL
same,MIC Ec,E. coli ATCC 25922,4 µg/mL
CNc1cc(F)cc2c1[nH]c1nc(Oc3cnc(C)nc3)nc(N3CC4(CCC4N)C3)c12 (centres unmarked) [Compound 4.100],MIC Sa,S. aureus ATCC 13709,≤0.5 µg/mL
same,MIC Ec,E. coli ATCC 25922,≤0.5 µg/mL
CNc1cc(F)cc2c1[nH]c1nc(Oc3cnc(C)nc3)nc(N3CC4CC(N)CC4C3)c12 (centres unmarked) [Compound 4.104],MIC Sa,S. aureus ATCC 13709,≤0.5 µg/mL
same,MIC Ec,E. coli ATCC 25922,≤0.5 µg/mL
CNc1cc(F)cc2c1[nH]c1nc(Oc3cnc(C)nc3)nc(N3CC4C(CN)C4C3)c12 (centres unmarked) [Compound 4.106],MIC Sa,S. aureus ATCC 13709,≤0.5 µg/mL
same,MIC Ec,E. coli ATCC 25922,2 µg/mL
CNc1cc(F)cc2c1[nH]c1nc(Oc3cnc(C)nc3)nc(N3CCC4(CC3)NC(=O)NC4=O)c12 [Compound 4.107],MIC Sa,S. aureus ATCC 13709,>16 µg/mL
same,MIC Ec,E. coli ATCC 25922,>16 µg/mL
CNc1cc(F)cc2c1[nH]c1nc(Oc3cnc(C)nc3)nc(NCCCN)c12 [Compound 4.108],MIC Sa,S. aureus ATCC 13709,4 µg/mL
same,MIC Ec,E. coli ATCC 25922,>16 µg/mL
CNc1cc(F)cc2c1[nH]c1nc(Oc3cnc(C)nc3)nc(N3CC4CCC(CN)C4C3)c12 (centres unmarked) [Compound 4.112],MIC Sa,S. aureus ATCC 13709,≤0.5 µg/mL
same,MIC Ec,E. coli ATCC 25922,1 µg/mL
CNc1cc(F)cc2c1[nH]c1nc(Oc3cnc(C)nc3)nc(N3CC4NCCOC4C3)c12 (centres unmarked) [Compound 4.114],MIC Sa,S. aureus ATCC 13709,≤0.5 µg/mL
same,MIC Ec,E. coli ATCC 25922,2 µg/mL
CNc1cc(F)cc2c1[nH]c1nc(Oc3cnc(C)nc3)nc(N3C[C@H](N)C[C@@H]3C)c12 [Compound 4.115],MIC Sa,S. aureus ATCC 13709,1 µg/mL
same,MIC Ec,E. coli ATCC 25922,8 µg/mL
CNc1cc(F)cc2c1[nH]c1nc(Oc3cnc(C)nc3)nc(N3CC4CCNC4(C)C3)c12 (centres unmarked) [Compound 4.116],MIC Sa,S. aureus ATCC 13709,≤0.5 µg/mL
same,MIC Ec,E. coli ATCC 25922,≤0.5 µg/mL
CNc1cc(F)cc2c1[nH]c1nc(Oc3cnc(C)nc3)nc(N3CC4CONC4C3)c12 (centres unmarked) [Compound 4.122],MIC Sa,S. aureus ATCC 13709,≤0.5 µg/mL
same,MIC Ec,E. coli ATCC 25922,1 µg/mL
CNc1cc(F)cc2c1[nH]c1nc(Oc3cnc(C)nc3)nc(N3CCC4(CNC4)C3)c12 [Compound 4.125],MIC Sa,S. aureus ATCC 13709,≤0.5 µg/mL
same,MIC Ec,E. coli ATCC 25922,4 µg/mL
CNc1cc(F)cc2c1[nH]c1nc(Oc3cnc(C)nc3)nc(N3CCC4(CCNC4)C3)c12 (centres unmarked) [Compound 4.126],MIC Sa,S. aureus ATCC 13709,≤0.5 µg/mL
same,MIC Ec,E. coli ATCC 25922,2 µg/mL
CNc1cc(F)cc2c1[nH]c1nc(Oc3cnc(C)nc3)nc(N(C)C3CNC3)c12 [Compound 4.134],MIC Sa,S. aureus ATCC 13709,>16 µg/mL
same,MIC Ec,E. coli ATCC 25922,>16 µg/mL
CNc1cc(F)cc2c1[nH]c1nc(Oc3cnc(C)nc3)nc(N3CCC(C)(N)CC3)c12 [Compound 4.135],MIC Sa,S. aureus ATCC 13709,≤0.5 µg/mL
same,MIC Ec,E. coli ATCC 25922,1 µg/mL
CNc1cc(F)cc2c1[nH]c1nc(Oc3cnc(C)nc3)nc(N3CC(N)C3)c12 [Compound 4.138],MIC Sa,S. aureus ATCC 13709,≤0.5 µg/mL
same,MIC Ec,E. coli ATCC 25922,≤0.5 µg/mL
CNc1cc(F)cc2c1[nH]c1nc(Oc3cnc(C)nc3)nc(N3CCC4(CCC4N)CC3)c12 (centres unmarked) [Compound 4.139],MIC Sa,S. aureus ATCC 13709,≤0.5 µg/mL
same,MIC Ec,E. coli ATCC 25922,≤0.5 µg/mL
CNc1cc(F)cc2c1[nH]c1nc(Oc3cnc(C)nc3)nc(N3CC(CN)C3)c12 [Compound 4.143],MIC Sa,S. aureus ATCC 13709,≤0.5 µg/mL
same,MIC Ec,E. coli ATCC 25922,2 µg/mL
CNc1cc(F)cc2c1[nH]c1nc(Oc3cnc(C)nc3)nc(N3CC4CC(N)C3C4)c12 (centres unmarked) [Compound 4.148],MIC Sa,S. aureus ATCC 13709,≤0.5 µg/mL
same,MIC Ec,E. coli ATCC 25922,4 µg/mL
CNc1cc(F)cc2c1[nH]c1nc(Oc3cnc(C)nc3)nc(N3CC4(CCCNC4)C3)c12 [Compound 4.149],MIC Sa,S. aureus ATCC 13709,≤0.5 µg/mL
same,MIC Ec,E. coli ATCC 25922,2 µg/mL
CNc1cc(F)cc2c1[nH]c1nc(Oc3cnc(C)nc3)nc(N3CCC(N)C(C)(C)C3)c12 (centres unmarked) [Compound 4.152],MIC Sa,S. aureus ATCC 13709,≤0.5 µg/mL
same,MIC Ec,E. coli ATCC 25922,1 µg/mL
CNc1cc(F)cc2c1[nH]c1nc(Oc3cnc(C)nc3)nc(N3CC4(CC(N)C4)C3)c12 [Compound 4.153],MIC Sa,S. aureus ATCC 13709,≤0.5 µg/mL
same,MIC Ec,E. coli ATCC 25922,2 µg/mL
CNc1cc(F)cc2c1[nH]c1nc(Oc3cnc(C)nc3)nc(N3CC4CCNC4C3)c12 (centres unmarked) [Compound 4.156],MIC Sa,S. aureus ATCC 13709,≤0.5 µg/mL
same,MIC Ec,E. coli ATCC 25922,≤0.5 µg/mL
CNc1cc(F)cc2c1[nH]c1nc(Oc3cnc(C)nc3)nc(N3CC(N4CC(N)C4)C3)c12 [Compound 4.158],MIC Sa,S. aureus ATCC 13709,≤0.5 µg/mL
same,MIC Ec,E. coli ATCC 25922,4 µg/mL
CNc1cc(F)cc2c1[nH]c1nc(Oc3cnc(C)nc3)nc(N3CCC(F)(CN)CC3)c12 [Compound 4.159],MIC Sa,S. aureus ATCC 13709,≤0.5 µg/mL
same,MIC Ec,E. coli ATCC 25922,≤0.5 µg/mL
CNc1cc(F)cc2c1[nH]c1nc(Oc3cnc(C)nc3)nc(-c3ccc(Cl)cc3N)c12 [Compound 4.161],MIC Sa,S. aureus ATCC 13709,≤0.5 µg/mL
same,MIC Ec,E. coli ATCC 25922,≤0.5 µg/mL
CNc1cc(F)cc2c1[nH]c1nc(Oc3cnc(C)nc3)nc(C3=CCNCC3)c12 [Compound 4.162],MIC Sa,S. aureus ATCC 13709,8 µg/mL
same,MIC Ec,E. coli ATCC 25922,>16 µg/mL
CNc1cc(F)cc2c1[nH]c1nc(Oc3cnc(C)nc3)nc(N3CCNCC3)c12 [Compound 4.163],MIC Sa,S. aureus ATCC 13709,≤0.5 µg/mL
same,MIC Ec,E. coli ATCC 25922,≤0.5 µg/mL
CNc1cc(F)cc2c1[nH]c1nc(Oc3cncc(OC)c3)nc(N3CC4C(N)C4C3)c12 (centres unmarked) [Compound 4.164],MIC Sa,S. aureus ATCC 13709,≤0.5 µg/mL
same,MIC Ec,E. coli ATCC 25922,1 µg/mL
CNc1cc(F)cc2c1[nH]c1nc(Oc3cncc(OC)c3)nc(N3CC4CC(N)C4C3)c12 (centres unmarked) [Compound 4.167],MIC Sa,S. aureus ATCC 13709,≤0.5 µg/mL
same,MIC Ec,E. coli ATCC 25922,≤0.5 µg/mL
CNc1cc(F)cc2c1[nH]c1nc(Oc3cncc(-c4nnnn4C)c3)nc(N3CC4C(N)C4C3)c12 (centres unmarked) [Compound 4.168],MIC Sa,S. aureus ATCC 13709,≤0.5 µg/mL
same,MIC Ec,E. coli ATCC 25922,2 µg/mL
CNc1cc(F)cc2c1[nH]c1nc(Oc3cncc(-c4nnnn4C)c3)nc(N3CCC(N)C3)c12 (centres unmarked) [Compound 4.169],MIC Sa,S. aureus ATCC 13709,2 µg/mL
same,MIC Ec,E. coli ATCC 25922,8 µg/mL
CNc1cc(F)cc2c1[nH]c1nc(Oc3cncc(-c4nnnn4C)c3)nc(N3CC4C[C@@H](N)C4C3)c12 (some centres unmarked) [Compound 4.171],MIC Sa,S. aureus ATCC 13709,≤0.5 µg/mL
same,MIC Ec,E. coli ATCC 25922,4 µg/mL
CNc1cc(F)cc2c1[nH]c1nc(Oc3cnc(N)nc3)nc(N3CC4C(N)C4C3)c12 (centres unmarked) [Compound 4.172],MIC Sa,S. aureus ATCC 13709,≤0.5 µg/mL
same,MIC Ec,E. coli ATCC 25922,≤0.5 µg/mL
CNc1cc(F)cc2c1[nH]c1nc(Oc3cnc(N)nc3)nc(N3CCC4(CC4N)C3)c12 (centres unmarked) [Compound 4.173],MIC Sa,S. aureus ATCC 13709,≤0.5 µg/mL
same,MIC Ec,E. coli ATCC 25922,1 µg/mL
CNc1cc(F)cc2c1[nH]c1nc(Oc3cnc(N)nc3)nc(N3CCC4(C[C@H]4N)C3)c12 (some centres unmarked) [Compound 4.174],MIC Sa,S. aureus ATCC 13709,≤0.5 µg/mL
same,MIC Ec,E. coli ATCC 25922,≤0.5 µg/mL
CNc1cc(F)cc2c1[nH]c1nc(Oc3cnc(N)nc3)nc(N3CCC(CN)C3)c12 (centres unmarked) [Compound 4.176],MIC Sa,S. aureus ATCC 13709,≤0.5 µg/mL
same,MIC Ec,E. coli ATCC 25922,1 µg/mL
CNc1cc(F)cc2c1[nH]c1nc(Oc3cnc(N)nc3)nc(N3CC(N)C4(CC4)C3)c12 (centres unmarked) [Compound 4.177],MIC Sa,S. aureus ATCC 13709,≤0.5 µg/mL
same,MIC Ec,E. coli ATCC 25922,≤0.5 µg/mL
CNc1cc(F)cc2c1[nH]c1nc(Oc3cnc(N)nc3)nc(N3CC4CNC4C3)c12 (centres unmarked) [Compound 4.178],MIC Sa,S. aureus ATCC 13709,≤0.5 µg/mL
same,MIC Ec,E. coli ATCC 25922,8 µg/mL
CNc1cc(F)cc2c1[nH]c1nc(Oc3cnc(N)nc3)nc(N3CCC(N)C3)c12 (centres unmarked) [Compound 4.179],MIC Sa,S. aureus ATCC 13709,≤0.5 µg/mL
same,MIC Ec,E. coli ATCC 25922,1 µg/mL
CNc1cc(F)cc2c1[nH]c1nc(Oc3cnc(N)nc3)nc(N3CCCC(N)C3)c12 (centres unmarked) [Compound 4.180],MIC Sa,S. aureus ATCC 13709,1 µg/mL
same,MIC Ec,E. coli ATCC 25922,8 µg/mL
CNc1cc(F)cc2c1[nH]c1nc(Oc3cnc(N)nc3)nc(N3CC(NC(=O)CN)C4(CC4)C3)c12 (centres unmarked) [Compound 4.182],MIC Sa,S. aureus ATCC 13709,2 µg/mL
same,MIC Ec,E. coli ATCC 25922,16 µg/mL
CNc1cc(F)cc2c1[nH]c1nc(Oc3cnc(N)nc3)nc(N3C4CCC3CC(N)C4)c12 (centres unmarked) [Compound 4.183],MIC Sa,S. aureus ATCC 13709,1 µg/mL
same,MIC Ec,E. coli ATCC 25922,8 µg/mL
CNc1cc(F)cc2c1[nH]c1nc(Oc3cnc(N)nc3)nc(N3CC4CC(N)C4C3)c12 (centres unmarked) [Compound 4.184],MIC Sa,S. aureus ATCC 13709,≤0.5 µg/mL
same,MIC Ec,E. coli ATCC 25922,1 µg/mL
CNc1cc(F)cc2c1[nH]c1nc(Oc3cnc(N)nc3)nc(N3CC4CC4(CN)C3)c12 (centres unmarked) [Compound 4.185],MIC Sa,S. aureus ATCC 13709,≤0.5 µg/mL
same,MIC Ec,E. coli ATCC 25922,8 µg/mL
CNc1cc(F)cc2c1[nH]c1nc(Oc3cnc(N)nc3)nc(N3CC4CCNC4C3)c12 (centres unmarked) [Compound 4.187],MIC Sa,S. aureus ATCC 13709,≤0.5 µg/mL
same,MIC Ec,E. coli ATCC 25922,2 µg/mL
CNc1cc(F)cc2c1[nH]c1nc(Oc3cnc(N)nc3)nc(N3CC4C(CN)C4C3)c12 (centres unmarked) [Compound 4.188],MIC Sa,S. aureus ATCC 13709,≤0.5 µg/mL
same,MIC Ec,E. coli ATCC 25922,8 µg/mL
